Reference: the NIST ThermoML archive (doi:10.1021/je500977g)
± gives the expanded uncertainty stated by the source.

Assay: mn = molality of the nth substance listed, in mol/kg
Conditions: Liquid

C[N+](C)(C)[O-] [trimethylamine oxide] + O
mass density [kg/m3]
Conditions | 288.15 K | 298.15 K
101 kPa, Vibrating tube method, m1 = 0.0875 | – | 997.22 ± 0.04
101 kPa, Vibrating tube method, m1 = 0.1707 | – | 997.4 ± 0.04
101 kPa, Vibrating tube method, m1 = 0.2465 | – | 997.57 ± 0.05
101 kPa, Vibrating tube method, m1 = 0.3259 | – | 997.74 ± 0.05
101 kPa, Vibrating tube method, m1 = 0.4018 | – | 997.91 ± 0.05
101 kPa, Vibrating tube method, m1 = 0.5862 | – | 998.35 ± 0.05
101 kPa, Vibrating tube method, m1 = 0.7963 | – | 998.86 ± 0.05
101 kPa, Vibrating tube method, m1 = 1.039 | – | 999.49 ± 0.05
101 kPa, Vibrating tube method, m1 = 1.373 | – | 1000.4 ± 0.05
101 kPa, Vibrating tube method, m1 = 1.923 | – | 1002.01 ± 0.05
101 kPa, Vibrating tube method, m1 = 3.259 | – | 1006.44 ± 0.06
101 kPa, Vibrating tube method, m1 = 4.325 | – | 1010.2 ± 0.06
10000 kPa, Constant-volume piezometry, m1 = 0.1707 | – | 1001.77 ± 0.17
10000 kPa, Constant-volume piezometry, m1 = 0.3259 | 1004.27 ± 0.16 | 1002.05 ± 0.17
10000 kPa, Constant-volume piezometry, m1 = 0.5862 | 1004.81 ± 0.16 | 1002.57 ± 0.17
10000 kPa, Constant-volume piezometry, m1 = 1.039 | 1005.85 ± 0.16 | 1003.56 ± 0.17
10000 kPa, Constant-volume piezometry, m1 = 1.373 | 1006.74 ± 0.16 | 1004.38 ± 0.17
10000 kPa, Constant-volume piezometry, m1 = 1.923 | 1008.34 ± 0.17 | 1005.83 ± 0.17
10000 kPa, Constant-volume piezometry, m1 = 3.259 | 1012.89 ± 0.17 | 1009.93 ± 0.18
10000 kPa, Constant-volume piezometry, m1 = 4.325 | 1016.87 ± 0.18 | 1013.44 ± 0.18
25000 kPa, Constant-volume piezometry, m1 = 0.1707 | 1010.63 ± 0.26 | 1008.19 ± 0.27
25000 kPa, Constant-volume piezometry, m1 = 0.3259 | 1010.83 ± 0.26 | 1008.39 ± 0.27
25000 kPa, Constant-volume piezometry, m1 = 0.5862 | 1011.2 ± 0.26 | 1008.79 ± 0.27
25000 kPa, Constant-volume piezometry, m1 = 1.039 | 1012.01 ± 0.26 | 1009.58 ± 0.27
25000 kPa, Constant-volume piezometry, m1 = 1.373 | 1012.71 ± 0.26 | 1010.25 ± 0.27
25000 kPa, Constant-volume piezometry, m1 = 1.923 | 1014.05 ± 0.27 | 1011.48 ± 0.28
25000 kPa, Constant-volume piezometry, m1 = 3.259 | 1018.05 ± 0.27 | –
25000 kPa, Constant-volume piezometry, m1 = 4.325 | 1021.69 ± 0.28 | –
50000 kPa, Constant-volume piezometry, m1 = 0.1707 | 1021.25 ± 0.46 | –
50000 kPa, Constant-volume piezometry, m1 = 0.3259 | 1021.31 ± 0.46 | –
50000 kPa, Constant-volume piezometry, m1 = 0.5862 | 1021.47 ± 0.46 | –
50000 kPa, Constant-volume piezometry, m1 = 1.039 | 1021.88 ± 0.47 | –
50000 kPa, Constant-volume piezometry, m1 = 1.373 | 1022.31 ± 0.47 | –
50000 kPa, Constant-volume piezometry, m1 = 1.923 | 1023.22 ± 0.47 | –
50000 kPa, Constant-volume piezometry, m1 = 3.259 | 1026.33 ± 0.48 | –
50000 kPa, Constant-volume piezometry, m1 = 4.325 | 1029.39 ± 0.48 | –
75000 kPa, Constant-volume piezometry, m1 = 0.1707 | 1031.35 ± 0.67 | –
75000 kPa, Constant-volume piezometry, m1 = 0.3259 | 1031.27 ± 0.67 | –
75000 kPa, Constant-volume piezometry, m1 = 0.5862 | 1031.21 ± 0.67 | –
75000 kPa, Constant-volume piezometry, m1 = 1.039 | 1031.28 ± 0.67 | –
75000 kPa, Constant-volume piezometry, m1 = 1.373 | 1031.46 ± 0.67 | –
75000 kPa, Constant-volume piezometry, m1 = 1.923 | 1031.97 ± 0.67 | –
75000 kPa, Constant-volume piezometry, m1 = 3.259 | 1034.24 ± 0.68 | –
75000 kPa, Constant-volume piezometry, m1 = 4.325 | 1036.73 ± 0.69 | –
100000 kPa, Constant-volume piezometry, m1 = 0.1707 | 1040.95 ± 0.88 | –
100000 kPa, Constant-volume piezometry, m1 = 0.3259 | 1040.74 ± 0.88 | –
100000 kPa, Constant-volume piezometry, m1 = 0.5862 | 1040.48 ± 0.88 | –
100000 kPa, Constant-volume piezometry, m1 = 1.039 | 1040.22 ± 0.88 | –
100000 kPa, Constant-volume piezometry, m1 = 1.373 | 1040.16 ± 0.88 | –
100000 kPa, Constant-volume piezometry, m1 = 1.923 | 1040.3 ± 0.88 | –
100000 kPa, Constant-volume piezometry, m1 = 3.259 | 1041.8 ± 0.89 | –
100000 kPa, Constant-volume piezometry, m1 = 4.325 | 1043.78 ± 0.9 | –
